Data on 34 molecules can be found in US8124587B2, “2-(aminomethyl)-5-chlorobenzylamide derivatives and their use as inhibitors of the clotting factor Xa” (The Medicines Company (Leipzig) GmbH, priority 2005, dated 2012).

Read-outs that look alike come from different tables or passages of the source. Bounds are passed on as bounds.

What all share (format): biochemical
One assay deals with T1, Thrombin (bovine) (Bos taurus, UniProt P00735).
T1 construct: Thrombin (bovine)
The assay can be described thus: Enzyme kinetic determination of Ki with chromogenic substrate, thrombin. The protocol: (§1) The inhibitory effect of the inhibitors for factor Xa, thrombin and plasmin were estimated using specific synthetic chromogenic substrates. […] The inhibitor was dissolved in Tris buffer, the substrates (all Pentapharm Ltd., Basel, CH) in water. […] Three different substrate concentrations and five different inhibitor concentrations were measured in each case.
(§2) The following enzymes and substrates were used for the measurements:
Enzyme content: 2.5 IE/ml (in 0.9% NaCl with 1% HSA)
Substrate: CH3SO2-D-HHT-Gly-Arg-pNA (Pefachrome tPA),
concentration: 2, 1 and 0.5 mM; reaction time: 3 min

The next assay deals with T2, Human plasmin (Homo sapiens, UniProt P00747).
T2 construct: Human plasmin (CHROMOGENIX, Milano, Italy); purchased CHROMOGENIX, Milano, Italy
The assay is described as follows: Enzyme kinetic determination of Ki with chromogenic substrate, plasmin. The settings on record: Tris buffer pH 8.0, 25° C., Chromozym PL. As for the experimental part: as §1, §2
Human plasmin (CHROMOGENIX, Milano, Italy)
Substrate: Tos-Gly-Pro-Lys-pNA (Chromozym PL),
concentration: 2, 1 and 0.67 mM; reaction time: 3 min

Another assay deals with T3, Human factor Xa (Homo sapiens, UniProt P00742).
T3 construct: Human factor Xa (Enzyme Research Lab., purchased from Haemochrom Diagnostica GmbH, Essen); purchased Enzyme Research Lab; (via Haemochrom Diagnostica GmbH, Essen)
The assay is described as follows: Enzyme kinetic determination of Ki with chromogenic substrate, factor Xa. Conditions: Tris buffer pH 8.0, 25° C., Pefachrome Xa, read-out: Ki (nM) FXa. As for the experimental part: as §1, §2
Human factor Xa (Enzyme Research Lab., purchased from Haemochrom Diagnostica GmbH, Essen)
Enzyme content: 0.67 μg/ml
Substrate: CH3OCO-D-Cha-Gly-Arg-pNA (Pefachrome Xa),
concentration: 4, 2 and 1 mM; reaction time: 4 min

The mark [1] stands for this setting: bovine thrombin, Tris buffer pH 8.0, 25° C., Pefachrome tPA, read-out: Ki (nM) Thrombin.

T3 sequence (P00742 235-488 limits assumed): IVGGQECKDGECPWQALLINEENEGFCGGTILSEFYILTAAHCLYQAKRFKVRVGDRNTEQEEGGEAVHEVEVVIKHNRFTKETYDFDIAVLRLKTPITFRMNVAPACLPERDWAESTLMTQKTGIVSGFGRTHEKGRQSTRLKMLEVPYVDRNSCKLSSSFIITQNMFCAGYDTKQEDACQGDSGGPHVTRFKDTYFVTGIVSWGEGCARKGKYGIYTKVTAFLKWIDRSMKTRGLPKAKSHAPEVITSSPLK
T3 sequence (P00742 41-179 limits assumed): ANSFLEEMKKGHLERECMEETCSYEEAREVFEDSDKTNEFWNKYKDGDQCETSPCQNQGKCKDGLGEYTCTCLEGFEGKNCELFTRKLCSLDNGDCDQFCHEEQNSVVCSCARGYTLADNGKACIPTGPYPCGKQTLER
T2 sequence (P00747 581-810 limits assumed): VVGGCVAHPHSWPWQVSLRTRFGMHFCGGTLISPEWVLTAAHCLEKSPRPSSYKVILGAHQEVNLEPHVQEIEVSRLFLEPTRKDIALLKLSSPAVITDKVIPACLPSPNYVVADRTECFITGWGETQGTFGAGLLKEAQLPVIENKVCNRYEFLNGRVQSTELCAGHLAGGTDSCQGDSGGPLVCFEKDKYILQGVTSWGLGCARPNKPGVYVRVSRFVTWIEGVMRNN
T2 sequence (P00747 97-580 limits assumed): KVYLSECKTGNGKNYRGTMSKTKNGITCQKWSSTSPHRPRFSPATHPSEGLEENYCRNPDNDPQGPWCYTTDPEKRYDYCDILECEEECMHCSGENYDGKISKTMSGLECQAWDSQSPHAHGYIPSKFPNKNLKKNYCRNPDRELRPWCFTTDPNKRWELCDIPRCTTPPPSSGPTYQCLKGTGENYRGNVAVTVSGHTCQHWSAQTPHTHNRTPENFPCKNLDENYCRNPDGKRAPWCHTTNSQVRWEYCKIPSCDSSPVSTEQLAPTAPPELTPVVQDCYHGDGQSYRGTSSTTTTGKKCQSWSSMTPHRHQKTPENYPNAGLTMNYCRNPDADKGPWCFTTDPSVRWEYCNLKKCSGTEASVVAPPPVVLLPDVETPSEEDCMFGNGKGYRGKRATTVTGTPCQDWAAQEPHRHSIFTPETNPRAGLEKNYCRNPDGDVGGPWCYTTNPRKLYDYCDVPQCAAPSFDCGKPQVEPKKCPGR

One may read the Ki as a measure of affinity in units of concentration, obtained from inhibition or displacement. As for `COC(=O)Cc1ccc(CS(=O)(=O)NC(CCc2cccc[n+]2[O-])C(=O)NCC(=O)NCc2cc(Cl)ccc2CN)cc1` (stereo not drawn) [Inhibitor 13], the Ki at Thrombin (bovine) was 1010 nM; at Human plasmin it was 200000 nM.
`NCc1ccc(Cl)cc1CNC(=O)[C@@H]1CCCN1C(=O)[C@@H](CCc1cccc[n+]1[O-])NCC(=O)OC1CCCCC1` [Inhibitor 38]: the Ki on Human factor Xa came out at 1.01 nM.
Take `CCCS(=O)(=O)NC(CCc1cccc[n+]1[O-])C(=O)NCC(=O)NCc1cc(Cl)ccc1CN` (stereo not drawn) [Inhibitor 4]: the figures for the Ki at Thrombin (bovine) and on Human plasmin were 2630 nM and 280000 nM, respectively.
Take `COC(=O)c1ccc(CS(=O)(=O)NC(CCc2ccccn2)C(=O)NCC(=O)NCc2cc(Cl)ccc2CN)cc1` (stereo not drawn) [Inhibitor 22]: the inhibitory constant (Ki) at Human factor Xa was 1.05 nM; at Thrombin (bovine) (setting [1]) it was 100 nM; at Human plasmin, 98000 nM.
For `NCc1ccc(Cl)cc1CNC(=O)[C@H](CN)NC(=O)[C@@H](CCc1cccc[n+]1[O-])NS(=O)(=O)Cc1ccccc1` [Inhibitor 12], in that order: 0.54 nM, 750 nM and 2300 nM.
For `NCc1ccc(Cl)cc1CNC(=O)CNC(=O)C(CCc1cccc[n+]1[O-])NS(=O)(=O)Cc1ccc(CC(=O)O)cc1` (stereo not drawn) [Inhibitor 14], the inhibition constant (Ki) at Thrombin (bovine) was 930 nM; on Human plasmin it was more than 1e+06 nM.
With `CC(C)OC(=O)CS(=O)(=O)NC(CCc1cccc[n+]1[O-])C(=O)NCC(=O)NCc1cc(Cl)ccc1CN` (stereo not drawn) [Inhibitor 28], the Ki was determined as 7.6 nM at Human factor Xa, 1600 nM at Thrombin (bovine) and 305000 nM at Human plasmin.
For the molecule `COC(=O)c1ccc(CS(=O)(=O)NC(CCc2cccc[n+]2[O-])C(=O)NCC(=O)NCc2cc(Cl)ccc2CN)cc1` (stereo not drawn) [Inhibitor 20], the Ki came to 0.3 nM at Human factor Xa, 360 nM at Thrombin (bovine) (setting [1]) and 140000 nM on Human plasmin.
For the molecule `NCc1ccc(Cl)cc1CNC(=O)[C@@H]1CCCN1C(=O)[C@@H](CCc1cccc[n+]1[O-])NS(=O)(=O)Cc1ccccc1` [Inhibitor 7], the Ki was 0.56 nM on Thrombin (bovine) and 8470 nM on Human plasmin.
With `NCc1ccc(Cl)cc1CNC(=O)CNC(=O)C(CCc1ccccn1)NS(=O)(=O)Cc1ccc(C(=O)O)cc1` (stereo not drawn) [Inhibitor 23], the inhibition constant Ki at Human factor Xa amounted to 11 nM; on Thrombin (bovine) (setting [1]), 330 nM; at Human plasmin, 140000 nM.
Consider `NCc1ccc(Cl)cc1CNC(=O)[C@@H]1CCCN1C(=O)[C@@H](CCc1cccc[n+]1[O-])NCC(=O)O` [Inhibitor 35], for which the Ki at Human factor Xa was determined as 0.4 nM; on Thrombin (bovine), 17.2 nM; at Human plasmin, 100000 nM.
On to `C[C@H](NC(=O)[C@@H](CCc1cccc[n+]1[O-])NS(=O)(=O)Cc1ccccc1)C(=O)NCc1cc(Cl)ccc1CN` [Inhibitor 10], for which the Ki on Thrombin (bovine) amounted to 170 nM; on Human plasmin, 85000 nM.
For `COC(=O)CC[C@H](NC(=O)[C@@H](CCc1cccc[n+]1[O-])NS(=O)(=O)Cc1ccccc1)C(=O)NCc1cc(Cl)ccc1CN` [Inhibitor 11], the Ki amounted to 0.24 nM on Human factor Xa, 180 nM on Thrombin (bovine) (setting [1]) and 78000 nM on Human plasmin.
With `NCc1ccc(Cl)cc1CNC(=O)[C@@H]1CCCN1C(=O)C(CCc1cccc[n+]1[O-])NC(=O)C(=O)O` (stereo partly drawn) [Inhibitor 31], the Ki came to 0.88 nM on Human factor Xa, 43 nM on Thrombin (bovine) (setting [1]) and 80000 nM at Human plasmin.
`NCc1ccc(Cl)cc1CNC(=O)[C@@H]1CCCN1C(=O)[C@@H](CCc1cccc[n+]1[O-])NS(=O)(=O)CC(=O)O` [Inhibitor 27]: the Ki on Thrombin (bovine) is 22 nM; on Human plasmin, 98000 nM.
Consider `COC(=O)c1ccc(CS(=O)(=O)NC(CCc2cccc[n+]2[O-])C(=O)N[C@@H](CO)C(=O)NCc2cc(Cl)ccc2CN)cc1` (stereo partly drawn) [Inhibitor 24], for which the inhibition constant Ki on Human factor Xa was 0.48 nM; at Thrombin (bovine) (setting [1]), 930 nM; at Human plasmin it was 160000 nM.
Consider `NCc1ccc(Cl)cc1CNC(=O)CNC(=O)[C@@H](CCc1cccc[n+]1[O-])NS(=O)(=O)Cc1ccccc1` [Inhibitor 1], for which the Ki on Thrombin (bovine) came to 170 nM; at Human plasmin, 600000 nM.
For `NCc1ccc(Cl)cc1CNC(=O)[C@H](CCC(=O)O)NC(=O)C(CCc1cccc[n+]1[O-])NS(=O)(=O)Cc1ccccc1` (stereo partly drawn) [Inhibitor 6], in that order: 20500 nM and 400000 nM.
Regarding `COC(=O)CC[C@H](NC(=O)C(CCc1cccc[n+]1[O-])NS(=O)(=O)Cc1ccccc1)C(=O)NCc1cc(Cl)ccc1CN` (stereo partly drawn) [Inhibitor 5], the Ki was found to be 0.43 nM on Human factor Xa, 350 nM on Thrombin (bovine) (setting [1]) and 130000 nM at Human plasmin.
On to `NCc1ccc(Cl)cc1CNC(=O)CNC(=O)C(CCc1cccc[n+]1[O-])NC(=O)CC(=O)O` (stereo not drawn) [Inhibitor 32], for which the Ki on Thrombin (bovine) is 140 nM.
For `NCc1ccc(Cl)cc1CNC(=O)[C@H](CO)NC(=O)C(CCc1ccccn1)NS(=O)(=O)Cc1ccccc1` (stereo partly drawn) [Inhibitor 3], the Ki was found to be 260 nM at Thrombin (bovine) and 350000 nM on Human plasmin.
With `NCc1ccc(Cl)cc1CNC(=O)CNC(=O)C(CCc1ccccn1)NS(=O)(=O)Cc1cccnc1` (stereo not drawn) [Inhibitor 26], the inhibition constant Ki on Human factor Xa is 0.34 nM; on Thrombin (bovine) (setting [1]), 140 nM; at Human plasmin, 210000 nM.
`COC(=O)Cc1ccc(CS(=O)(=O)NC(CCc2ccccn2)C(=O)N[C@@H](CO)C(=O)NCc2cc(Cl)ccc2CN)cc1` (stereo partly drawn) [Inhibitor 18]: the inhibition constant Ki on Human factor Xa was 0.67 nM; on Thrombin (bovine) (setting [1]), 430 nM; on Human plasmin it was more than 1e+06 nM.
For `NCc1ccc(Cl)cc1CNC(=O)CNC(=O)C(CCc1cccc[n+]1[O-])NS(=O)(=O)Cc1ccc[n+]([O-])c1` (stereo not drawn) [Inhibitor 25], in that order: 1.4 nM, 2500 nM and more than 1e+06 nM.
On to `NCc1ccc(Cl)cc1CNC(=O)CNC(=O)[C@H](O)CCc1ccccc1` [Inhibitor 8], for which the inhibition constant Ki at Human factor Xa worked out at 2200 nM; at Thrombin (bovine) (setting [1]), 1600 nM; at Human plasmin, 540000 nM.
On to `NCc1ccc(Cl)cc1CNC(=O)CNC(=O)C(CCc1ccccn1)NS(=O)(=O)Cc1ccc(CC(=O)O)cc1` (stereo not drawn) [Inhibitor 15], for which the inhibitory constant (Ki) on Human factor Xa was 0.68 nM; at Thrombin (bovine) (setting [1]), 140 nM; at Human plasmin it was more than 1e+06 nM.
As to `NCc1ccc(Cl)cc1CNC(=O)[C@H](CO)NC(=O)[C@@H](CCc1cccc[n+]1[O-])NS(=O)(=O)Cc1ccc(CC(=O)O)cc1` [Inhibitor 17], the Ki at Human factor Xa was 0.18 nM; at Thrombin (bovine) (setting [1]), 540 nM; at Human plasmin, more than 1e+06 nM.
For `NCc1ccc(Cl)cc1CNC(=O)CNC(=O)C(CCc1cccc[n+]1[O-])NS(=O)(=O)Cc1ccc(C(=O)O)cc1` (stereo not drawn) [Inhibitor 21], the inhibitory constant (Ki) at Human factor Xa came out at 4.1 nM; on Thrombin (bovine) (setting [1]) it was 1300 nM; at Human plasmin, 130000 nM.
On Thrombin (bovine), `CCOC(=O)CN[C@H](CCc1ccccn1)C(=O)N1CCC[C@H]1C(=O)NCc1cc(Cl)ccc1CN` [Inhibitor 34] returned an inhibition constant (Ki) of 3.8 nM.
On to `NCc1ccc(Cl)cc1CNC(=O)CNC(=O)C(CCc1cccc[n+]1[O-])NCC(=O)O` (stereo not drawn) [Inhibitor 9], for which the Ki was 125000 nM on Thrombin (bovine) and more than 1e+06 nM at Human plasmin.
Regarding `NCc1ccc(Cl)cc1CNC(=O)CNC(=O)C(CCc1cccc[n+]1[O-])NS(=O)(=O)CC(=O)O` (stereo not drawn) [Inhibitor 29], the Ki at Thrombin (bovine) is 8300 nM; at Human plasmin, more than 1e+06 nM.
For the molecule `NCc1ccc(Cl)cc1CNC(=O)[C@H](CO)NC(=O)[C@@H](CCc1ccccn1)NS(=O)(=O)Cc1ccc(CC(=O)O)cc1` [Inhibitor 19], the results for the inhibitory constant (Ki) on Human factor Xa, at Thrombin (bovine) (setting [1]) and at Human plasmin were 0.78 nM, 210 nM and 100000 nM, respectively.
Consider `CCOC(=O)CN[C@H](CCc1cccc[n+]1[O-])C(=O)N1CCC[C@H]1C(=O)NCc1cc(Cl)ccc1CN` [Inhibitor 33], for which the values for the inhibitory constant (Ki) at Human factor Xa and on Human plasmin were 0.4 nM and 240000 nM, respectively.
For the molecule `CC(C)OC(=O)CS(=O)(=O)NC(CCc1ccccn1)C(=O)NCC(=O)NCc1cc(Cl)ccc1CN` (stereo not drawn) [Inhibitor 30], the Ki on Human factor Xa worked out at 2.1 nM; at Thrombin (bovine) (setting [1]) it was 66 nM; at Human plasmin, 290000 nM.
